Measurements: patent publication US6884577B2, “Methods for screening compounds for estrogenic activity” (The Regents of the University of California, priority 1993, dated 2005)

Key:
[1] = tested on: ER at the AP1 site of the human collagenase promoter, ERC1 cells; test: Collagenase promoter-CAT reporters (Δcoll73, Δcoll60) in ERC1 cells; type: cell-based
Description: FIGS. 1A and 1B show estrogen stimulation mediated by an AP1 site in ERC1 cells (FIG. 1A) and F9 cells (FIG. 1B). Typical results of CAT assays, normalized for transfection efficiency, following a single transfection are shown opposite. Each point is the mean value of triplicate assays, with standard errors. CAT activities from cells maintained in the absence of hormone are shown as white bars, those in the presence of a saturating concentration (100 nM) of estradiol as black bars.
CAT assays were carried out as described in Webb et al., except that the cells were harvested one to two days after transfection instead of three. CAT activities were defined as the increase in cpm per hour at room temperature (corrected for background) per 100 μl of cell extract, normalized to production of 100 standard units of βHCG, from a co-transfected reporter gene, actin-HCG. Luciferase assays were performed as described by Brasier et al. Methods Enzymol 216:386-97 (1992)) on similar extracts that were used for CAT assays. Light units were defined as the luciferase activity per 100 μl of cell extract per 100 standard units of βHCG. Relative luciferase activities were calculated with respect to the results that were obtained in the absence of ER and hormone, which was set at 1 unit. For the data presented in Table I triplicate points were determined. Standard deviations were less than 20%. […]

[2] = tested on: human ER at the AP-1 site (collagenase promoter, AP-1-tk), HeLa cells; test: CAT assays of HeLa cells transfected with AP-1 site reporter genes and human ER expression vector; type: cell-based; settings: transiently expressed human ER, FIG. 2A
Description: Representations, at left, show the human collagenase promoter (shaded) and the consensus AP-1 site. […] CAT activity is normalized to a transfection control with the actin promoter driving expression of βHCG. Single representative experiments are shown, error bars represent standard deviation of triplicate hormone treatments.
Cells were maintained and transfected as previously described in Webb et al., supra. […] F9 cells were seeded at 30% confluence upon 1.5 cm dishes and transfected overnight by calcium phosphate coprecipitation with 5 μg reporter gene, 1 μg actin β-HCG, and 1 μg of HEO, 300 ng each of c-jun and c-fos expression vectors. The cells were glycerol shocked and refed in growth medium containing hormone or ethanolic vehicle.
CAT assays were carried out as described in Webb et al., except that the cells were harvested one to two days after transfection instead of three. CAT activities were defined as the increase in cpm per hour at room temperature (corrected for background) per 100 μl of cell extract, normalized to production of 100 standard units of βHCG, from a co-transfected reporter gene, actin-HCG. […] Light units were defined as the luciferase activity per 100 μl of cell extract per 100 standard units of βHCG. Relative luciferase activities were calculated with respect to the results that were obtained in the absence of ER and hormone, which was set at 1 unit. For the data presented in Table I triplicate points were determined.
To further examine the effects of antiestrogens on the AP-1 directed pathway, reporter genes derived from the human collagenase promoter were transfected into HeLa cells.

[3] = tested on: ER at classical ERE, Ishikawa cells; test: ERE-coll60CAT reporter in Ishikawa cells; type: cell-based
Description: Left panel, coll73-CAT response with endogenous ER contrasted with the response of an ERE regulated reporter, ERE-coll60CAT. […] Averages of three individual experiments are shown. […] A single representative experiment with triplicate hormone treatments is shown.
To further explore this phenomenon, and to test whether similar hormone effects could be detected at physiological levels of ER, the expression of the collagenase promoter in cells that express endogenous ER was examined.

[4] = tested on: MCF-7 cell; settings: Braacke et al. 1991; cited from earlier work

In the case of `C[C@]12CC[C@@H]3c4ccc(O)cc4CC[C@H]3[C@@H]1CC[C@@H]2O` [estradiol, 17β-estradiol], the “estrogen response of Δcoll60 (AP1 site removed)” value [1] is reported as “no estrogen response”, the “stimulation of Δcoll73 (CAT)” value ([1]; 100 nM estradiol, FIG. 1A) is reported as “ten fold” and the “activation of the collagenase promoter (coll517, coll73)” value [2] is reported as “activated”. For the same compound, the “expression of ERE-coll60” value [3] was “tenfold” and the “MCF-7 cell invasion activity of a re-constituted basement membrane” value [4] was “stimulated”.
